Measurements taken from patent US20140162942A1, “INHIBITION OF CYP3A DRUG METABOLISM” (priority 2010, published 2014).
Where two headings read alike, the source gives them in different places.

Key:
CYP3A4/5 = test: NADPH dependence and effects of dilution of time-dependent inhibition of CYP3A4/5 (testosterone 6β-hydroxylation and midazolam 1′-hydroxylation); assay type: in vitro ADME, human; conditions: 3 μM
CYP2B6 = target: T1, CYP2B6 (Homo sapiens, UniProt P20813); test: CYP2B6 inhibition, bupropion hydroxylation in human liver microsomes; assay type: in vitro ADME; conditions: for Potential for Time-Dep. Inhibition: comparison with and without 30-minute pre-incubation; for inhibition at 5 min, 100 µM: human, pH 7.4, probe bupropion (hydroxylation)
T1 construct: Pooled human liver microsomes (from sixteen individuals) were used as the source of enzymes; tissue XenoTech, LLC; host or cells: human liver microsomes, pool of sixteen donors
T1 sequence (P20813 1-491): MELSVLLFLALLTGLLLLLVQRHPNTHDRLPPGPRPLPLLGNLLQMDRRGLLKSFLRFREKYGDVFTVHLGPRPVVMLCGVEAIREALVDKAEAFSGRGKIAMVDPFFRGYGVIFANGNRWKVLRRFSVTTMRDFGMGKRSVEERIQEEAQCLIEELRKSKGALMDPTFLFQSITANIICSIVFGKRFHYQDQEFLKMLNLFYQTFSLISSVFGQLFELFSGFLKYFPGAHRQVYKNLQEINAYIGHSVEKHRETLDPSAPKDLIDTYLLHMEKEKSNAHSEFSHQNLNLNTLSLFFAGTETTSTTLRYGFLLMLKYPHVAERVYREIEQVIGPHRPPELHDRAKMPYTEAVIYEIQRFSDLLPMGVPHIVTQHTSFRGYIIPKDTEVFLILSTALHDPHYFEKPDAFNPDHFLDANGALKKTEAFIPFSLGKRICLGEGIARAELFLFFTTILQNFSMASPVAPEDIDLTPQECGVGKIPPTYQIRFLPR
Description: (§1) The basis for many of the following incubation conditions is described in the following references: Madan, et al., 2002,^(1) Huang, 2004,^(3) Ogilvie, et al., 2006,^(6) Pearce, et al., 1996,^(7) Tucker, et al., 2001,^(4) and Walsky and Obach, 2004.^(5) In general, incubations were conducted at approximately 37° C. in 400-μL incubation mixtures (target pH 7.4) containing high purity water, potassium phosphate buffer (50 mM), MgCl2 (3 mM), EDTA (1 mM), an NADPH-generating system [always the mixture of the following: NADP (1 mM), glucose-6-phosphate (5 mM), glucose-6-phosphate dehydrogenase (1 Unit/mL)], and marker substrate at the final concentrations indicated. Pooled human liver microsomes (from sixteen individuals) were used as the source of enzymes (Section 1.3.1.2). The concentrations of marker substrates were based on the Km and Vmax data that were determined previously (data not shown).
(§2) Due to the possibility that boceprevir may bind to microsomal protein or lipids, an attempt was made to design these experiments such that, in as many cases as possible, the microsomal protein, incubation time, and phosphate buffer concentration were 0.1 mg/mL, 5 minutes and 50 mM, respectively, for assays performed with human liver microsomes (Table 1). […] Since it is not imperative that the concentration of marker substrates be exactly equal to Km, the marker substrate concentrations were rounded up or down, as applicable, to simplify the experimental design (data not shown). […] Thus, the final incubation concentration of phenacetin was 60 μM (Table 1).
(§3) The ability of boceprevir to inhibit the CYP enzymes listed in Section 1.2.1 was investigated with a pool of sixteen individual human liver microsomal samples at the concentrations indicated in Table 1. Aliquots of the stock and/or working solutions of boceprevir were manually added to buffer mixtures containing the components described in Section 1.3.21. Incubation mixtures were prepared in bulk to obviate the need for directly pipetting very small volumes (i.e., 1 μL or less). Incubations containing no boceprevir (0 μM) contained the vehicle used to dissolve boceprevir (i.e., 1% methanol).
(§4) The Tecan liquid handling system conducted all remaining incubation steps, with the exception of the centrifugation. Aliquots of the buffer mixtures were then automatically added to 96-well plates at the appropriate locations in duplicate. Aliquots of a substrate working solution were added to the 96-well plates, prior to initiating reactions, to give the final concentrations indicated in Table 1. Reactions were initiated with the addition of an aliquot of an NADPH-generating system. Reactions were automatically terminated at approximately 5 minutes, by the addition of the appropriate internal standard (Table 5) and stop reagent; acetonitrile. Precipitated protein was removed by centrifugation (920 g for 10 minutes at 10° C.). Standards and quality control samples were similarly prepared with the addition of authentic metabolite standards.
To examine its ability to act as a time-dependent inhibitor, boceprevir (at the same concentrations used to evaluate direct inhibition) was pre-incubated at 37±1° C., in duplicate, with human liver microsomes and an NADPH-generating system for approximately 30 minutes. This pre-incubation allowed for the generation of intermediates that could inhibit human CYP enzymes. The pre-incubations were initiated with the addition of an aliquot of an NADPH-generating system. […] Reactions were automatically terminated, at approximately 5 minutes, by the addition of the appropriate internal standard (Table 5) and stop reagent; acetonitrile. Precipitated protein was removed by centrifugation (920 g for 10 minutes at 10° C.). Incubations containing no boceprevir (0 μM) and incubations that contained boceprevir but were not pre-incubated, served as negative controls.

CYP2C9 = target: T2, CYP2C9 (Homo sapiens, UniProt P11712); test: CYP2C9 inhibition, diclofenac 4′-hydroxylation in human liver microsomes; assay type: in vitro ADME; conditions: for Potential for Time-Dep. Inhibition: comparison with and without 30-minute pre-incubation
T2 construct: Pooled human liver microsomes (from sixteen individuals) were used as the source of enzymes; tissue XenoTech, LLC; host or cells: human liver microsomes, pool of sixteen donors
Description: as §1, §2, §3, §4
(§5) To examine its ability to act as a time-dependent inhibitor, boceprevir (at the same concentrations used to evaluate direct inhibition) was pre-incubated at 37±1° C., in duplicate, with human liver microsomes and an NADPH-generating system for approximately 30 minutes. This pre-incubation allowed for the generation of intermediates that could inhibit human CYP enzymes. The pre-incubations were initiated with the addition of an aliquot of an NADPH-generating system. […]

CYP2C8 = target: T3, CYP2C8 (Homo sapiens, UniProt P10632); test: CYP2C8 inhibition, amodiaquine N-dealkylation in human liver microsomes; assay type: in vitro ADME; conditions: for Potential for Time-Dep. Inhibition: comparison with and without 30-minute pre-incubation
T3 construct: Pooled human liver microsomes (from sixteen individuals) were used as the source of enzymes; tissue XenoTech, LLC; host or cells: human liver microsomes, pool of sixteen donors
T3 sequence (P10632 1-490): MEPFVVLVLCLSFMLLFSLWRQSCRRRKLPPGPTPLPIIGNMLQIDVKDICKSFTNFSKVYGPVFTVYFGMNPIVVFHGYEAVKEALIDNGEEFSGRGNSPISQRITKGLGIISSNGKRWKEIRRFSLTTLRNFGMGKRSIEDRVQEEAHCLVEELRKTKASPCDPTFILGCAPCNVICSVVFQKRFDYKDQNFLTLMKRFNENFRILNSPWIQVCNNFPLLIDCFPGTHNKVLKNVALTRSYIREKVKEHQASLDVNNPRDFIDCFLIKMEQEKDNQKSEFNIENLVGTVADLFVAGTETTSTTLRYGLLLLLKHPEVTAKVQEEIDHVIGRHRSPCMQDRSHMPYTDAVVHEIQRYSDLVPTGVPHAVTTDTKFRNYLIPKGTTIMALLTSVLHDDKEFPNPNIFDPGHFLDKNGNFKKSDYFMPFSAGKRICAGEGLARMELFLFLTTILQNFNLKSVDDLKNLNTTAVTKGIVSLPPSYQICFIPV
Description: as §1, §2, §3, §4, §5

[1] = direct inhibition, zero-minute pre-incubation, pooled human liver microsomes
[2] = time-dependent inhibition, 30-minute pre-incubation

T2 sequence (P11712 whole entry): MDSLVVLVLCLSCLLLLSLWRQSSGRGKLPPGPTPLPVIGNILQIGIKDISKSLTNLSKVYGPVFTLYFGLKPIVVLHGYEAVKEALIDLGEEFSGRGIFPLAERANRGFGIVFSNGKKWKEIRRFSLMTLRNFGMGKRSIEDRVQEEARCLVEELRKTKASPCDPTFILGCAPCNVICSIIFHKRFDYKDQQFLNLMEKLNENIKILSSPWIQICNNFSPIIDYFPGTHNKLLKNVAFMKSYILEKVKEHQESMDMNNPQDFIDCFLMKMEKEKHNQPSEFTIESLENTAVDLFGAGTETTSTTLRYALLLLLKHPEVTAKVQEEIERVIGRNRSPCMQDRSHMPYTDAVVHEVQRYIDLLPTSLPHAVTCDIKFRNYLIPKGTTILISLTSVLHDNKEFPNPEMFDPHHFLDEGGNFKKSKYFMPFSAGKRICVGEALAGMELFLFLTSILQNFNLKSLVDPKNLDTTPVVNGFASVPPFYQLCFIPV

Question: With CC(C)(C)NC(=O)NC(C(=O)N1CC2C([C@H]1C(=O)NC(CC1CCC1)C(=O)C(N)=O)C2(C)C)C(C)(C)C (stereo partly drawn) [Boceprevir, (1R,2S,5S)—N-[(2Ξ)-4-amino-1-cyclobutyl-3,4-dioxobutan-2-yl]-3-{(2S)-2-[(tert-butylcarbamoyl)amino]-3,3-dimethylbutanoyl}-6,6-dimethyl-3-azabicyclo[3.1.0]hexane-2-carboxamide] as the compound, how does the “Resistance to dilution of the increase in inhibition upon pre-incubation” value (CYP3A4/5; 25-fold dilution after pre-incubation) read?
Answer: did not appear to be resistant to dilution

Question: What about the “NADPH dependence of the increase in inhibition upon pre-incubation” value (CYP3A4/5; pre-incubation 0, 15 and 30 minutes with and without NADPH) of the same compound?
Answer: did require NADPH

Question: What about the “Potential for Time-Dep. Inhibition” value (CYP2B6) of the same compound?
Answer: little or no

Question: What about the “Potential for Time-Dep. Inhibition” value (CYP2B6; listed as boceprevir) of the same compound?
Answer: no discernable time-dependent inhibition

Question: What about the IC50 (CYP2B6; [1]) of the same compound?
Answer: > 100 µM

Question: What about the inhibition at 5 min, 100 µM (CYP2B6; pooled human liver microsomes, direct inhibition, zero-minute pre-incubation, read-out: Max. Inhib. at 100 μM) of the same compound?
Answer: 2.3%

Question: What about the inhibition at 5 min, 100 µM (CYP2B6; pooled human liver microsomes, time-dependent inhibition, 30-minute pre-incubation, read-out: Maximum Inhibition at 100 μM) of the same compound?
Answer: 6.9%

Question: And the IC50 (CYP2B6; [2])?
Answer: > 100 µM

Question: What about the “Potential for Time-Dep. Inhibition” value (CYP2C9) of the same compound?
Answer: little or no

Question: And the “Potential for Time-Dep. Inhibition” value (CYP2C9; listed as boceprevir)?
Answer: no discernable time-dependent inhibition

Question: What about the IC50 (CYP2C9; [1]) of the same compound?
Answer: > 100 µM

Question: And the inhibition at 5 min, 100 µM (CYP2C9; human, pooled human liver microsomes, pH 7.4, probe diclofenac (4′-hydroxylation), direct inhibition, zero-minute pre-incubation, read-out: Max. Inhib. at 100 μM)?
Answer: 3.6%

Question: And the IC50 (CYP2C9; [2])?
Answer: > 100 µM

Question: What about the “Potential for Time-Dep. Inhibition” value (CYP2C8) of the same compound?
Answer: little or no

Question: And the “Potential for Time-Dep. Inhibition” value (CYP2C8; listed as boceprevir)?
Answer: no discernable time-dependent inhibition

Question: What about the IC50 (CYP2C8; [1]) of the same compound?
Answer: > 100 µM

Question: And the inhibition at 5 min, 100 µM (CYP2C8; human, pooled human liver microsomes, pH 7.4, probe amodiaquine (N-dealkylation), direct inhibition, zero-minute pre-incubation, read-out: Max. Inhib. at 100 μM)?
Answer: 25%

Question: What about the IC50 (CYP2C8; [2]) of the same compound?
Answer: > 100 µM
